# Reference: ChEMBL document CHEMBL1146256, “ATP-conjugated peptide inhibitors for calmodulin-dependent protein kinase II” (Bioorg Med Chem Lett, 2007)
# Starred links: 1 amine or outer side, 2 acyl side, 3 side chain; linkers in the order of their positions; H or OH if unused. Non-standard residues stand in square brackets, D forms with d. Residues, ends and D or L forms follow the SMILES beside them. ξ: configuration not given here. *: point of attachment. X1 = Nc1ncnc2c1ncn2[C@@H]1O[C@H](COP(=O)(O)OP(=O)(O)OP(=O)(O)OC2CC(=O)N(CCOCCOCCOCCN3C(=O)CC(S[C@@H](N[*:1])C(=O)[*:2])C3=O)C2=O)[C@@H](O)[C@H]1O; Biotin = O=C1N[C@H]2[C@H](CS[C@H]2CCCCC(=O)*)N1; ξF = NC(Cc1ccccc1)C(=O)O
# Assay: Inhibition of CaMK2
# Set-up: species or system Homo sapiens
row,IC50 [nM],Molecule
1,22,CC(C)C[C@H](NC(=O)[C@H](C)NC(=O)[C@H](CC(=O)O)NC(=O)[C@H](Cc1ccccc1)NCC(=O)[C@H](CNC(=O)CCOP(=O)(O)OP(=O)(O)OP(=O)(O)OC[C@@H]1O[C@H](n2cnc3c(N)ncnc32)[C@@H](O)[C@H]1O)NC(=O)[C@H](CCC(=O)O)NC(=O)[C@H](CCC(N)=O)NC(=O)[C@H](CCCNC(=N)N)NC(=O)[C@H](CCCNC(=N)N)NC(=O)[C@H](CC(C)C)NC(=O)[C@H](CCCCN)NC(=O)[C@H](CCCCN)NC(=O)[C@H](CCCCN)NC(=O)CCCC[C@@H]1SC[C@@H]2NC(=O)N[C@@H]21)C(=O)O
2,18000,CC(C)C[C@H](NC(=O)[C@H](C)NC(=O)[C@H](CCCCN)NC(=O)[C@H](CCCCN)NC(=O)CCCC[C@@H]1SC[C@@H]2NC(=O)N[C@@H]21)C(=O)N[C@@H](CCCNC(=N)N)C(=O)N[C@@H](CCCNC(=N)N)C(=O)N[C@@H](CCC(N)=O)C(=O)N[C@@H](CCC(=O)O)C(=O)N[C@@H](C)C(=O)NCC(=O)N[C@@H](CC(=O)O)C(=O)N[C@@H](C)C(=O)N[C@@H](CC(C)C)C(=O)N[C@H](SC1CC(=O)N(CCOCCOCCOCCN2C(=O)CC(OP(=O)(O)OP(=O)(O)OP(=O)(O)OC[C@H]3O[C@@H](n4cnc5c(N)ncnc54)[C@H](O)[C@@H]3O)C2=O)C1=O)C(=O)O (some centres undefined) (Biotin-KKALRRQEAGDAL[X1]-OH)
3,305,CC(C)C[C@H](NC(=O)[C@H](C)NC(=O)[C@H](CCCCN)NC(=O)[C@H](CCCCN)NC(=O)CCCC[C@@H]1SC[C@@H]2NC(=O)N[C@@H]21)C(=O)N[C@@H](CCCNC(=N)N)C(=O)N[C@@H](CCCNC(=N)N)C(=O)N[C@@H](CCC(N)=O)C(=O)N[C@@H](CCC(=O)O)C(=O)N[C@@H](C)C(=O)N[C@H](C(=O)N[C@@H](CC(=O)O)C(=O)N[C@@H](C)C(=O)N[C@@H](CC(C)C)C(=O)N[C@H](SC1CC(=O)N(CCOCCOCCOCCN2C(=O)CC(OP(=O)(O)OP(=O)(O)OP(=O)(O)OC[C@H]3O[C@@H](n4cnc5c(N)ncnc54)[C@H](O)[C@@H]3O)C2=O)C1=O)C(=O)O)C(C)C (some centres undefined) (Biotin-KKALRRQEAVDAL[X1]-OH)
4,181,CC(C)C[C@H](NC(=O)[C@H](C)NC(=O)[C@H](CC(=O)O)NC(=O)C(Cc1ccccc1)NC(=O)[C@H](C)NC(=O)[C@H](CCC(=O)O)NC(=O)[C@H](CCC(N)=O)NC(=O)[C@H](CCCNC(=N)N)NC(=O)[C@H](CCCNC(=N)N)NC(=O)[C@H](CC(C)C)NC(=O)[C@H](CCCCN)NC(=O)[C@H](CCCCN)NC(=O)[C@H](CCCCN)NC(=O)CCCC[C@@H]1SC[C@@H]2NC(=O)N[C@@H]21)C(=O)N[C@H](SC1CC(=O)N(CCOCCOCCOCCN2C(=O)CC(OP(=O)(O)OP(=O)(O)OP(=O)(O)OC[C@H]3O[C@@H](n4cnc5c(N)ncnc54)[C@H](O)[C@@H]3O)C2=O)C1=O)C(=O)O (some centres undefined) (Biotin-KKKLRRQEA[ξF]DAL[X1]-OH)
5,4000,H-KKALRRQEAGDAL-OH

# The next lines start with the molecule.
row,Molecule,IC50 [nM]
1,CC(C)C[C@H](NC(=O)[C@H](C)NC(=O)[C@H](CC(=O)O)NC(=O)CNCC(=O)[C@H](CNC(=O)CCOP(=O)(O)OP(=O)(O)OP(=O)(O)OC[C@@H]1O[C@H](n2cnc3c(N)ncnc32)[C@@H](O)[C@H]1O)NC(=O)[C@H](CCC(=O)O)NC(=O)[C@H](CCC(N)=O)NC(=O)[C@H](CCCNC(=N)N)NC(=O)[C@H](CCCNC(=N)N)NC(=O)[C@H](CC(C)C)NC(=O)[C@H](C)NC(=O)[C@H](CCCCN)NC(=O)[C@H](CCCCN)NC(=O)CCCC[C@@H]1SC[C@@H]2NC(=O)N[C@@H]21)C(=O)O,1320
2,H-KKALRRQEAVDAL-OH,320
3,H-KKKLRRQEAFDAL-OH,76
4,CC(C)C[C@H](NC(=O)[C@H](C)NC(=O)[C@H](CC(=O)O)NC(=O)[C@@H](NCC(=O)[C@H](CNC(=O)CCOP(=O)(O)OP(=O)(O)OP(=O)(O)OC[C@@H]1O[C@H](n2cnc3c(N)ncnc32)[C@@H](O)[C@H]1O)NC(=O)[C@H](CCC(=O)O)NC(=O)[C@H](CCC(N)=O)NC(=O)[C@H](CCCNC(=N)N)NC(=O)[C@H](CCCNC(=N)N)NC(=O)[C@H](CC(C)C)NC(=O)[C@H](C)NC(=O)[C@H](CCCCN)NC(=O)[C@H](CCCCN)NC(=O)CCCC[C@@H]1SC[C@@H]2NC(=O)N[C@@H]21)C(C)C)C(=O)O,67
